Measurements taken from ChEMBL document CHEMBL1136686 (Bioorg Med Chem Lett, 2003).

Experiments:
[1] = biological target: T1, Progesterone receptor (Homo sapiens, UniProt P06401); test: Inhibition of [3H]P4 to progesterone receptor (PR) of human T47D breast carcinoma cells; type: cell-based
T1 sequence (P06401 whole entry): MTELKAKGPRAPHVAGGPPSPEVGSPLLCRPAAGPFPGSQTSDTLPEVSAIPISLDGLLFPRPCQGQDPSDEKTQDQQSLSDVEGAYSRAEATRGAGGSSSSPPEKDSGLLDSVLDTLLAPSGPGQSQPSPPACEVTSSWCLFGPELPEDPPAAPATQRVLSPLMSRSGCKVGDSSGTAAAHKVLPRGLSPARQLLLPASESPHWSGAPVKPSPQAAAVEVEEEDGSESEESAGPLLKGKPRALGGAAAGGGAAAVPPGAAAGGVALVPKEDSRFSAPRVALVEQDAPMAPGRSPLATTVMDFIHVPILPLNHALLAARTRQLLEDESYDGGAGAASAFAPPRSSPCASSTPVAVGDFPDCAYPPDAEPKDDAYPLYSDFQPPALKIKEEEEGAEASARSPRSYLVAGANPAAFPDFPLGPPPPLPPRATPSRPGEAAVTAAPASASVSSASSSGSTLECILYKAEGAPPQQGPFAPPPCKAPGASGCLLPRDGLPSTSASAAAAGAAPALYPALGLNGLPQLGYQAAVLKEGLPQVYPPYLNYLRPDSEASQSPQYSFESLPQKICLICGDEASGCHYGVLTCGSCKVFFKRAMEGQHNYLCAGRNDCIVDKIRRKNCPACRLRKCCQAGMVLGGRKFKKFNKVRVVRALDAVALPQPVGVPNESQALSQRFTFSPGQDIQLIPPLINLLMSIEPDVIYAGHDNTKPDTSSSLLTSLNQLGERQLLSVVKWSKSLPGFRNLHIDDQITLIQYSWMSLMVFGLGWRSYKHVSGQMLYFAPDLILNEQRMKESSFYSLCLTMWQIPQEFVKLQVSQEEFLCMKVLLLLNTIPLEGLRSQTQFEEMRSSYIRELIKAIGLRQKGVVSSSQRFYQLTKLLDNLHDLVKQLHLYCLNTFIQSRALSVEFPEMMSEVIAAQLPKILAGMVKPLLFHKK

[2] = biological target: T2, Androgen receptor (Mus musculus, UniProt P19091); test: Effective concentration against Androgen receptor
T2 sequence (P19091 whole entry): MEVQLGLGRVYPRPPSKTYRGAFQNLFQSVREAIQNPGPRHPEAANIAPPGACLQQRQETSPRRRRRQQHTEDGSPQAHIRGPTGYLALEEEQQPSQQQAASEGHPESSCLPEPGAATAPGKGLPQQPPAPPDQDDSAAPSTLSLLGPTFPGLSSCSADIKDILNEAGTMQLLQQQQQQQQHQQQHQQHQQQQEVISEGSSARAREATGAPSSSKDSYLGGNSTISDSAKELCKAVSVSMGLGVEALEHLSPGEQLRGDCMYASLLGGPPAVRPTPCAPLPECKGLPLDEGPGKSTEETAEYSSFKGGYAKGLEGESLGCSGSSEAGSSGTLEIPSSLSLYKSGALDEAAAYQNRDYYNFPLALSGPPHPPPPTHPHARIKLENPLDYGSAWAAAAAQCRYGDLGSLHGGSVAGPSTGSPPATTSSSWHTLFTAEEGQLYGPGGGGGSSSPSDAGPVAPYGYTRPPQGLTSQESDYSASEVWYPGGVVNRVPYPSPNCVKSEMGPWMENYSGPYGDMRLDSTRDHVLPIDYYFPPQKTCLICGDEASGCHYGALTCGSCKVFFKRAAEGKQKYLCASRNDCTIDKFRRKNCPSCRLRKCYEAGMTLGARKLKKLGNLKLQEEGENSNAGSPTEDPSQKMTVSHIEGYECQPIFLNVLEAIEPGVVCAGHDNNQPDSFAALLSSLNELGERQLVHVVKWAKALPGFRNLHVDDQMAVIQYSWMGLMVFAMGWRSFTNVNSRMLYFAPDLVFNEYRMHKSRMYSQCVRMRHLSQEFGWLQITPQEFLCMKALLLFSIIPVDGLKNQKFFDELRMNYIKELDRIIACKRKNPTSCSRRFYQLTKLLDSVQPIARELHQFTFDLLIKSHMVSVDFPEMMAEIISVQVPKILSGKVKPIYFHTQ

[3] = biological target: T1, Progesterone receptor; test: Effective concentration on alkaline phosphatase activity in human T47D breast carcinoma cell line.; type: functional, cell-based
[4] = biological target: T2, Androgen receptor; test: Inhibitory activity against Androgen receptor
[5] = biological target: T3, Glucocorticoid receptor (Homo sapiens, UniProt P04150); test: Inhibitory activity against GR (glucocorticoid receptor)
T3 sequence (P04150 whole entry): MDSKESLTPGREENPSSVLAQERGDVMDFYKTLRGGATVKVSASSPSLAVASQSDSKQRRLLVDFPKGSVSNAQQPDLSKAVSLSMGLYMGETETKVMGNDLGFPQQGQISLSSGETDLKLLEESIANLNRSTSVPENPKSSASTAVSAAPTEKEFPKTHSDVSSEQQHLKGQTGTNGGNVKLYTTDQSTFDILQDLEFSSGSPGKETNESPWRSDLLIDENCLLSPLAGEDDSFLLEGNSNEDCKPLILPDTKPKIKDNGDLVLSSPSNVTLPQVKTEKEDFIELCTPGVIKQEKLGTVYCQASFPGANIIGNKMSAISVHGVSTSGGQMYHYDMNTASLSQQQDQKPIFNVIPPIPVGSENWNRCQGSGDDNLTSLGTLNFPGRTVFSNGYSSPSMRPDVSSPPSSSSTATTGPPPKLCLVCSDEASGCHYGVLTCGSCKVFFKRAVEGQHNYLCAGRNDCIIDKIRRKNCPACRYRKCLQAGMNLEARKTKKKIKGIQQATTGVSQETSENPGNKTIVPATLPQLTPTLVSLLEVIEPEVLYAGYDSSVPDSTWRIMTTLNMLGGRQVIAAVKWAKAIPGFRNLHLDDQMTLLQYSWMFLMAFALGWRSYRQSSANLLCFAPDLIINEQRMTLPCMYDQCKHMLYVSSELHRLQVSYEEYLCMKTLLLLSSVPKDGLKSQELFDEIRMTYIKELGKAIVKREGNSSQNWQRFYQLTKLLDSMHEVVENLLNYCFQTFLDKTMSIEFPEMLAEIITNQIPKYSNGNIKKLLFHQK

[6] = biological target: T1, Progesterone receptor; test: Effective concentration against PR (progesterone receptor)
[7] = biological target: T3, Glucocorticoid receptor; test: Effective concentration against GR (glucocorticoid receptor)

In the case of CC1(C)OC(=S)Nc2ccc(-c3csc(C#N)c3)cc21, the IC50 [1] is reported as 3 nM, the EC50 [2] is reported as > 10000 nM and the EC50 [3] is reported as 0.4 nM. The IC50 [4] was 379 nM, the IC50 [5] was 1320 nM and the EC50 [6] was 0.38 nM. For the same compound, the EC50 [7] was > 10000 nM.
